Holding throughout (experiment): Growth inhibition on agar plates, crystalline material swabbed on
Holding throughout (type): cell-based

One assay has as its system Neisseria meningitis. To be noted: agar plate containing Neisseria meningitis. From the text:
(§1) A chalky, white substance presumptively identified as monosodium urate monohydrate crystals was extracted from the subcutaneous area of an elbow of a patient presenting with a soft tissue gouty tophus at the elbow. […] The crystalline substance was swabbed onto agar plates containing Staphylococcus aureus, Staphylococcus pyogenes, Neisseria meningitis, Neisseria gonorrhorea, Escherichia coli, Methicillin resistant Staphylococcus aureus, Haemophilus influenza or Serratia Marcessens. The crystalline material inhibited the growth of the microorganisms as indicated below in Table 1.

The test system of another assay is Neisseria gonorrhorea. To be noted: agar plate containing Neisseria gonorrhorea.
From the text: as §1

The subject of a further assay is Escherichia coli. As to conditions: agar plate containing Escherichia coli.
From the text: as §1

In a further assay the test system is Staphylococcus aureus.
From the text: as §1

The test system of another assay is Staphylococcus pyogenes. As to conditions: agar plate containing Staphylococcus pyogenes.
From the text: as §1

Assay [1] relates to Methicillin resistant Staphylococcus aureus. As to conditions: agar plate containing Methicillin resistant Staphylococcus aureus.
From the text: as §1

The test system of a further assay is Haemophilus influenza. As to conditions: agar plate containing Haemophilus influenza.
From the text: as §1

Another assay has as its system Serratia Marcessens. To be noted: agar plate containing Serratia Marcessens.
From the text: as §1

Turning to `O.O=c1[n-]c2c(=O)[nH]c(=O)[nH]c2[nH]1.[Na+]` [Monosodium Urate Monohydrate, monosodium urate monohydrate], the “Antimicrobial activity (growth inhibition)” value with Neisseria meningitis is given as “Inhibited growth”; with Neisseria gonorrhorea, “Inhibited growth”; with Escherichia coli, “Did not inhibit growth”; with Staphylococcus aureus (agar plate containing Staphylococcus aureus), “Inhibited growth”; in the assay with Staphylococcus pyogenes it was “Inhibited growth”; in assay [1], “Did not inhibit growth”. For the same molecule, the “Antimicrobial activity (growth inhibition)” value in the assay on Haemophilus influenza and in the assay on Serratia Marcessens was “Did not inhibit growth” in each case. The bacteriocidal activity entry with Staphylococcus aureus (against S. aureus) is “exhibited bacteriocidal activity”.

For the origin of these results see patent US7875620B2, “Methods of treating microbial infections” (Piper Medical, Inc., priority 2005, dated 2011).
